In patent US20250313574A1, “SIALIC ACID DERIVATIVES AND METHODS OF USING SAME” (EISAI R&D MANAGEMENT CO., LTD., priority 2022, published 2025) one finds EC50 data, which are given here for 29 compounds.

The EC50 is the concentration at which the effect is half-maximal.

Chain of Recombinant human CD33 protein (P20138 18-259): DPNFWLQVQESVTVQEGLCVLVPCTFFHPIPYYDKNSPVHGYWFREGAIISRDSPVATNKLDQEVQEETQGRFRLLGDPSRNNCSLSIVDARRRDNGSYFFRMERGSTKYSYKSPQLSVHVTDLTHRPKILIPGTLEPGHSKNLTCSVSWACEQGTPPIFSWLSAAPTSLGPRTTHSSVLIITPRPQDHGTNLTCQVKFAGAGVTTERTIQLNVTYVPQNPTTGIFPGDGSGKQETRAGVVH

The assay deals with Recombinant human CD33 protein (Homo sapiens (Human), UniProt P20138). Put plainly: CD33 competitive binding assay for HTS drug screen (fluorescent multivalent sialic acid probe). The procedure:
This is a competitive binding assay that uses recombinant CD33 immobilized to a plate and a fluorescently-labeled multivalent sialic acid analog as a probe. Binding of drug to the site on CD33 to which sialic acid binds is detected by reduced binding of the fluorescent probe. Recombinant human CD33 protein (for example Acro Biosystems cat #CD3-H5257) was added at a concentration of 10 μg/ml in 20 mM acetate buffer (pH5.5) to a black plastic plate (Corning 4510) and allowed to incubate overnight at 4° C. The next day, the wells were washed 3 times with PBS containing 0.02% Tween-20. This was followed by a 30-minute incubation with PBS containing 0.2% Tween-20 and 0.5% BSA to block non-specific binding to the well. This buffer is removed and replaced with 10 μl of the same buffer, which is also used as the assay buffer. The fluorescent multivalent sialic acid probe was prepared as a 4× concentration as follows. A biotinylated sialic acid analog A-375 was mixed with biotin-4-Fluorescein isothiocyanate (biotin-4-FITC) at a 3:1 molar ratio with final concentrations (4× stock) of 60 μM A-375 and 20 μM biotin-4-FITC. After these were mixed, 20 μM of neutravidin was added, which should form complexes consisting of neutravidin, fluorescein and sialic acid with an average complex consisting of 1 neutravidin, 1 FITC and 3 sialic acid analogs. The multimerization of the sialic acid analog is critical to the assay and improves the affinity of the sialic acid analog several orders of magnitude. A test compound, for example A-001, is added at 5 μl to the 10 μl assay buffer already in the well. After a brief incubation, 5 μl of the 4× stock solution of sialic acid complexes was added. The final concentration of the complexes was therefore 5 μM neutravidin, 15 μM A-375 and 5 μM FITC. The plate was incubated at room temperature for 30 mins and then washed with PBS containing 0.2% Tween-20. Binding of the sialic acid complex is very stable, with an off-rate of several days. Bound complex was then detected using a standard plate reader to quantify FITC fluorescence.
As to `CC(=O)N[C@H]1[C@H]([C@H](O)[C@H](O)CNC(=O)c2cc(C)c(O)c(C)c2)O[C@@](CCN2CCOC[C@@]23CCN(c2cc(N(C)C)ccn2)C3)(C(=O)O)C[C@@H]1O` [A-041], the 50% effective concentration (EC50) came out at 0.58 µM.

Take `CC(=O)N[C@H]1[C@H]([C@H](O)[C@H](O)CNC(=O)c2cc(C)c(O)c(C)c2)O[C@@](CC2OC(C)(C)O[C@H]2c2ccc3c(c2)N(C(=O)OC(C)(C)C)CC3)(C(=O)O)C[C@@H]1O` (some centres unmarked) [A-308]: the EC50 amounted to 2.94 µM.

Regarding `CC(=O)N[C@H]1[C@H]([C@H](O)[C@H](O)CNC(=O)c2cc(C)c(O)c(C)c2)O[C@@](CCN2CCC[C@@]23CCN(C(=O)OC(C)(C)C)C3)(C(=O)O)C[C@@H]1O` [A-019], the EC50 is 0.028 µM.

With `CC(=O)N[C@H]1[C@H]([C@H](O)[C@H](O)CNC(=O)c2cc(C)c(O)c(C)c2)O[C@@](CCN2CCOC[C@@]23CCN(C(=O)C2CCC(F)(F)C2)C3)(C(=O)O)C[C@@H]1O` (some centres unmarked) [A-074], the EC50 came to 0.263 µM.

With `CC(=O)N[C@H]1[C@H]([C@H](O)[C@H](O)CNC(=O)c2cc(C)c(O)c(C)c2)O[C@@](CCN2CCC[C@]23CCN(C(=O)OC(C)(C)C)C3)(C(=O)O)C[C@@H]1O` [A-020], the EC50 came to 0.472 µM.

Take `Cc1cc(C(=O)NC[C@@H](O)C[C@H]2CC[C@H](C)[C@](CCN3CCOC[C@@]34CCN(C(=O)OC(C)(C)C)C4)(C(=O)O)O2)cc2cc[nH]c12` [A-216]: the EC50 stood at 12.2 µM.

On to `CC(=O)N[C@H]1[C@H]([C@H](O)[C@H](O)CNC(=O)c2cc(C)c(O)c(C)c2)O[C@@](CCN2CCOC[C@@]23CCN(C(=O)C(C)C2CCCCC2)C3)(C(=O)O)C[C@@H]1O` (some centres unmarked) [A-076], for which the EC50 came out at 0.226 µM.

`CC(=O)N[C@H]1[C@H]([C@H](O)[C@H](O)CNC(=O)c2cc(C)c(O)c(C)c2)O[C@@](CCN2CCOC[C@@]23CCN(C(=O)c2ccccn2)C3)(C(=O)O)C[C@@H]1O` [A-087]: the EC50 came out at 5.26 µM.

As for `C#C[C@H](C)C(=O)C(=O)Nc1cccc([C@@H]2OC(C)(C)OC2C[C@]2(C(=O)O)C[C@H](O)[C@@H](NC(C)=O)[C@H]([C@H](O)[C@H](O)CNC(=O)c3cc(C)c(O)c(C)c3)O2)c1` (some centres unmarked) [A-306], the EC50 amounted to 5.62 µM.

On to `CC(=O)N[C@H]1[C@H]([C@H](O)[C@H](O)CNC(=O)c2cc(C)c(O)c(C)c2)O[C@@](CCN2CCOC[C@@]23CCN(C(=O)c2c(C)cccc2C)C3)(C(=O)O)C[C@@H]1O` [A-086], for which the EC50 is greater than 5 µM.

As for `CC(=O)N[C@H]1[C@H]([C@H](O)[C@H](O)CNC(=O)c2cc(C)c(O)c(C)c2)O[C@@](CCN2CCOC[C@@]23CCN(C(=O)COC(C)(C)C)C3)(C(=O)O)C[C@@H]1O` [A-090], the EC50 stood at 3.12 µM.

For the compound `CC(=O)N[C@H]1[C@H]([C@H](O)[C@H](O)CNC(=O)c2cc(C)c(O)c(C)c2)O[C@@](C/C=C/C2(F)CCN(C(=O)OC(C)(C)C)C2)(C(=O)O)C[C@@H]1O` (some centres unmarked) [A-198], the EC50 is 0.148 µM.

As to `CC(=O)N[C@H]1[C@H]([C@H](O)[C@H](O)CNC(=O)c2cc(C)c(O)c(C)c2)O[C@@](CCN2CCN(C)C[C@@]23CCN(C(=O)NC(C)(C)C)C3)(C(=O)O)C[C@@H]1O` [A-105], the concentration for a half-maximal effect (EC50) was 0.008 µM.

Regarding `CC(=O)N[C@H]1[C@H]([C@H](O)[C@H](O)CNC(=O)c2cc(C)c3[nH]ncc3c2)O[C@@](CCN2CCOC[C@@]23CCN(C(=O)OC(C)(C)C)C3)(C(=O)O)C[C@@H]1O` [A-130], the EC50 turned out to be 0.009 µM.

As for `CC(=O)N[C@H]1[C@H]([C@H](O)[C@H](O)CNC(=O)c2cc(C)c(O)c(C)c2)O[C@@](CCN2CCOC[C@@]23CCN(C(=O)C(C)(C)Oc2ccccc2)C3)(C(=O)O)C[C@@H]1O` [A-081], the EC50 was determined as 1.95 µM.

Turning to `CC(=O)N[C@H]1[C@H]([C@H](O)[C@H](O)CNC(=O)c2cc(C)c(O)c(C)c2)O[C@@](CCN2CCOC[C@@]23CCN(C(=O)c2ccc4[nH]cnc4c2)C3)(C(=O)O)C[C@@H]1O` [A-094], the EC50 was 2.33 µM.

As for `CC(=O)N[C@H]1[C@H]([C@H](O)[C@H](O)CNC(=O)c2cc(C)c(O)c(C)c2)O[C@@](CCN2CCOC[C@@]23CCN(C(=O)N[C@H](C)c2ccc(Br)cc2)C3)(C(=O)O)C[C@@H]1O` [A-056], the EC50 worked out at 0.153 µM.

Turning to `C=C(OC(C)(C)C)N1CCC2(CC1)CCN2CC[C@]1(C(=O)O)C[C@H](O)[C@@H](NC(C)=O)[C@H]([C@H](O)[C@H](O)CNC(=O)c2cc(C)c(O)c(C)c2)O1` [A-023], the EC50 is 0.176 µM.

Regarding `Cc1cc(C(=O)NCC(O)C[C@@H]2O[C@@](C/C=C/C3CCN(C(=O)OC(C)(C)C)C3)(C(=O)O)CCC2C)cc2cc[nH]c12` (single isomer, unassigned) [A-212], the EC50 came to 17.4 µM.

With `CC(=O)N[C@H]1[C@H]([C@H](O)[C@H](O)CNC(=O)c2cc(C)c(O)c(C)c2)O[C@@](CCN2CCOCC23CCN(C(=O)OC(C)(C)C)CC3)(C(=O)O)C[C@@H]1O` [A-007], the EC50 worked out at 0.811 µM.

For the compound `CC(=O)N[C@H]1[C@H]([C@H](O)[C@H](O)CNC(=O)c2cc(C)c(O)c(C)c2)O[C@@](CCN2CCNC[C@@]23CCN(C(=O)NC(C)(C)C)C3)(C(=O)O)C[C@@H]1O` [A-108], the concentration for a half-maximal effect (EC50) was 0.026 µM.

Turning to `CC(=O)N[C@H]1[C@H]([C@H](O)[C@H](O)CNC(=O)c2cc(C)c(O)c(C)c2)O[C@@](C/C=C/C2CCN(c3cc(N(C)C)ccn3)C2)(C(=O)O)C[C@@H]1O` (some centres unmarked) [A-199], the EC50 was 9.86 µM.

With `CC(=O)N[C@H]1[C@H]([C@H](O)[C@H](O)CNC(=O)c2cc(C)c(O)c(C)c2)O[C@@](CCN2CCOC[C@@]23CCN(C(=O)COC(C)C)C3)(C(=O)O)C[C@@H]1O` [A-084], the EC50 was determined as 1.56 µM.

Take `CC(=O)N[C@H]1[C@H]([C@H](O)[C@H](O)CNC(=O)c2cc(C)c(O)c(C)c2)O[C@@](CCN2CCOC[C@@]23CCN(Cc2cccc(C)c2)C3)(C(=O)O)C[C@@H]1O` [A-104]: the EC50 is greater than 10 µM.

On to `CC(=O)N[C@H]1[C@H]([C@H](O)[C@H](O)CNC(=O)c2cc(C)c(O)c(C)c2)O[C@@](CCN2CCOC[C@@]23CCN(C(=O)C(c2ccccc2)C2CCCCC2)C3)(C(=O)O)C[C@@H]1O` (some centres unmarked) [A-089], for which the EC50 is 0.291 µM.

For `CC(=O)N[C@H]1[C@H]([C@H](O)[C@H](O)CNC(=O)c2cc(C)c(O)c(C)c2)O[C@@](CCN2CCOC[C@@]23CCN(C(=O)CC(C)c2ccccc2)C3)(C(=O)O)C[C@@H]1O` (some centres unmarked) [A-068], the EC50 came to 0.101 µM.

Take `COC(C)(C)C(=O)N1CC[C@@]2(COCCN2CC[C@]2(C(=O)O)C[C@H](O)[C@@H](NC(C)=O)[C@H]([C@H](O)[C@H](O)CNC(=O)c3cc(C)c(O)c(C)c3)O2)C1` [A-085]: the EC50 is 1.28 µM.

Consider `CC(=O)N[C@H]1[C@H]([C@H](O)[C@H](O)CNC(=O)c2cc(C)c(O)c(C)c2)O[C@@](CCN2CCOC[C@@]23CCN(C(=O)C2CCC(F)(F)CC2)C3)(C(=O)O)C[C@@H]1O` [A-075], for which the EC50 amounted to 0.099 µM.

With `CC(=O)N[C@H]1[C@H]([C@H](O)[C@H](O)CNC(=O)c2cc(C)c(O)c(C)c2)O[C@@](C[C@@H]2COC[C@@]3(CCN(C(=O)OC(C)(C)C)C3)N2)(C(=O)O)C[C@@H]1O` [A-226, (2R,4S,5R,6R)-5-acetamido-2-(((5S,7R)-2-(tert-butoxycarbonyl)-9-oxa-2,6-diazaspiro[4.5]decan-7-yl)methyl)-6-((1R,2R)-1,2-dihydroxy-3-(4-hydroxy-3,5-dimethylbenzamido)propyl)-4-hydroxytetrahydro-2H-pyran-2-carboxylic acid], the EC50 was 3.87 µM.
